Measurements as given in patent US20170280720A1, “ARGININE […] INHIBITORS AND USES THEREOF” (EPIZYME, INC., priority 2014, published 2017).

system: asymmetric di-methyl PABP1 in RKO cells; assay: In Cell Western (ICW) for asymmetric di-methyl PABP1 and DNA content in RKO cells; assay type: cell-based; conditions: Homo sapiens, RKO, In Cell Western
In short: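 RKO cells treated with compound for 48 h at 37 °C, then fixed, methanol-permeabilized and stained for asymmetric di-methyl PABP1 (800 nm) with DRAQ5 DNA stain (700 nm). Signal ratio normalized to DMSO and 20 μM reference-compound controls. IC50 from nine 3-fold dilutions in triplicate.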

Structure (SMILES)	IC50
CNCCN(C)Cc1cccc(-c2cc(NC3CC3)c3cnn(C(C)C)c3n2)c1 [Compound 11]	3.44 µM
CC(C)n1ncc2c(C(=O)NCc3ccccc3)cc(-c3cccc(CN(C)CCN)c3)cc21 [Compound 14]	20 µM
CNCCN(C)Cc1cccc(-c2nc(NCc3cc(C)nn3C)c3cnn(C4CC4)c3n2)c1 [Compound 17]	20 µM
CNCCN(C)Cc1cccc(-c2cc(Nc3ncc(C)s3)c3cnn(C(C)C)c3n2)c1 [Compound 20]	3.33 µM
Cc1nn(C(C)C)c2nc(-c3cccc(CN(C)CCN)c3)cc(N3CCOCC3)c12 [Compound 22, N1-(3-(1-isopropyl-3-methyl-4-morpholino-1H-pyrazolo[3,4-b]pyridin-6-yl)benzyl)-N1-methylethane-1,2-diamine]	3.11 µM
CNCCN(C)Cc1cccc(-c2nc(NC3CCOCC3)c3cnn(C(C)(C)C)c3n2)c1 [Compound 27, N1-(3-(1-tert-butyl-4-(tetrahydro-2H-pyran-4-ylamino)-1H-pyrazolo[3,4-d]pyrimidin-6-yl)benzyl)-N1,N2-dimethylethane-1,2-diamine]	0.387 µM
CNCCN(C)Cc1cccc(-c2ccc3cn(Cc4ccccc4)nc3n2)c1 [Compound 35]	3.05 µM
CNCCN(C)Cc1cccc(-c2cc(C(=O)NCc3ccccc3F)c3cnn(C(C)C)c3n2)c1 [Compound 38]	4.12 µM
CNCCN(C)Cc1cccc(-c2cnc3c(c2)c(Br)nn3CC2CCOCC2)c1 [Compound 39]	20 µM
CC(C)n1ncc2c(NC3CC3)cc(-c3cccc(CN(C)CCN)c3)nc21 [Compound 41]	5.94 µM
CC(C)n1ncc2c(C(=O)N3CCCCC3)cc(-c3cccc(CN(C)CCN)c3)nc21 [Compound 43]	20 µM
CNCCN(C)Cc1cccc(-c2cc(Oc3ccccc3)c3cnn(C(C)C)c3n2)c1 [Compound 45]	20 µM
CNC(=O)Nc1cc(-c2cccc(CN(C)CCN)c2)nc2c1cnn2C(C)C [Compound 126]	10.8 µM
CCC(=O)c1cc(-c2cccc(CN(C)CCNC)c2)nc2c1cnn2C(C)C [Compound 128]	20 µM
CNCCN(C)Cc1cc(-c2cc(C(=O)NC3CCOCC3)c3cnn(C(C)C)c3n2)ccc1F [Compound 130]	11.5 µM
CN(CCN)Cc1cccc(-c2cc(C(=O)NC3CCOCC3)c3cnn(C4CC4)c3n2)c1 [Compound 142]	2.77 µM
CN(CCN)Cc1cccc(-c2cc(C(=O)NC3CCOCC3)c3cnn(CC(F)(F)F)c3n2)c1 [Compound 144]	8.46 µM
CC(C)n1ncc2c(C(=O)NC3CCOCC3)cc(-c3cccc(CN(C)CCN)c3)nc21 [Compound 148]	0.972 µM
CN(CCN)Cc1cccc(-c2cc(C(=O)NC3CCOCC3)c3cnn(C)c3n2)c1 [Compound 158]	13.5 µM
CC(C)n1ncc2c(C(=O)NCC3CCOCC3)cc(-c3cccc(CN(C)CCNC4CC4)c3)nc21 [Compound 167]	5.14 µM

Second part, the compound after the results:

IC50	Structure (SMILES)
0.442 µM	CN(CCN)Cc1cccc(-c2nc(NC3CCOCC3)c3cnn(C(C)(C)C)c3n2)c1 [Compound 18]
7.37 µM	CNCCN(C)Cc1cccc(-c2cc(C(=O)NCC3CCOCC3)c3cnn(C4CCC4)c3n2)c1 [Compound 21]
2.15 µM	CNCCN(C)Cc1cccc(-c2cc(C(=O)NCC3CCOCC3)c3cnn(C4CC4)c3n2)c1 [Compound 26]
5.21 µM	CNCCN(C)Cc1cccc(-c2cc(C(=O)NC3CCOCC3)c3cnn(C4CCC4)c3n2)c1 [Compound 29]
11.5 µM	CNCCN(C)Cc1cccc(-c2cc(NC(=O)NC3CCOCC3)c3cnn(C(C)C)c3n2)c1 [Compound 133]
9.62 µM	CNCCN(C)Cc1cccc(-c2cc(C(=O)NCc3cnn(C)c3C)c3cnn(C(C)C)c3n2)c1 [Compound 137]
7.74 µM	CNCCN(C)Cc1cccc(-c2cc(NC(=O)NC)c3cnn(C(C)C)c3n2)c1 [Compound 138]
4.86 µM	CNCCN(C)Cc1cccc(-c2cc(NS(=O)(=O)N(C)C)c3cnn(C(C)C)c3n2)c1 [Compound 139]
20 µM	CNCCN(C)Cc1cccc(-c2cc(N)c3cnn(C(C)C)c3n2)c1 [Compound 151]
20 µM	CC(C)n1ncc2c(C(=O)N3CCCCC3)cc(-c3cccc(CNCCN)c3)nc21 [Compound 153]
20 µM	CC(C)n1ncc2c(C(=O)NCc3ccccc3F)cc(-c3cccc(CNCCN)c3)nc21 [Compound 159]
11.3 µM	CCS(=O)(=O)Nc1cc(-c2cccc(CN(C)CCNC)c2)nc2c1cnn2C(C)C [Compound 161]
11.6 µM	CC(C)n1ncc2c(N3CCOCC3)cc(-c3cccc(CN(C)CCNC4CC4)c3)nc21 [Compound 163]
11.9 µM	CNCCN(C)Cc1cccc(-c2cc(NS(=O)(=O)C(F)(F)F)c3cnn(C(C)C)c3n2)c1 [Compound 164]
13.3 µM	CNCCN(C)Cc1cccc(-c2cc(NS(C)(=O)=O)c3cnn(C(C)C)c3n2)c1 [Compound 169]
12.8 µM	CNCCN(C)Cc1cccc(-c2cnc3c(c2)OCC(=O)N3)c1 [Compound 355]
